Here are results for 29 molecules from ChEMBL document CHEMBL1201862, “PubChem BioAssay data set” (2004).

Calls of active or inactive are those of the source. Where only a bound is given, the exact number is not on record here.

The test system of data set [1] is Escherichia coli. In words: microbe, parasite or virus in culture.
The target in data set [2] is T1, Corticotropin-releasing factor receptor 2/Corticotropin-releasing factor-binding protein (Homo sapiens, UniProt P24387+Q13324).
T1 sequence (Q13324 whole entry): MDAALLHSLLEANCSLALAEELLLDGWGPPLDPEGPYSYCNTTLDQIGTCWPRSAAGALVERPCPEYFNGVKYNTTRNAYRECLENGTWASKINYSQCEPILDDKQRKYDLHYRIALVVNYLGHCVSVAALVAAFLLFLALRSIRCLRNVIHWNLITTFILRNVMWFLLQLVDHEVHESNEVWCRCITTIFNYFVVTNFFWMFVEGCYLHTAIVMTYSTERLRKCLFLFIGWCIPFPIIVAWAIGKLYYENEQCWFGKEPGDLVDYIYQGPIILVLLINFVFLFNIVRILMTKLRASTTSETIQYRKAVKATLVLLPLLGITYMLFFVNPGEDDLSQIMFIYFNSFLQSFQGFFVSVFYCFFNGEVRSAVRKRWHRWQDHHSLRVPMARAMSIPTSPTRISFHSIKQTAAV
T1 sequence (P24387 whole entry): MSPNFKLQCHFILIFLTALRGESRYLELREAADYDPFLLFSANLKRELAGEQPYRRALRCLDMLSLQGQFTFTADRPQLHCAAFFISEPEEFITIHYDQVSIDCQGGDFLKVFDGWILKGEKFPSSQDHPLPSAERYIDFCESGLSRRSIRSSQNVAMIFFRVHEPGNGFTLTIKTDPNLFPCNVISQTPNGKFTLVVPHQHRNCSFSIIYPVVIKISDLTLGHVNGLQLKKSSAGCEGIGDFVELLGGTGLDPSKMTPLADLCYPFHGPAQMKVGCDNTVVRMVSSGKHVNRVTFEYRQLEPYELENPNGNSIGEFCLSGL
In words: activators of CRF receptor 2 with binding protein – uHTS hits, confirmation (AID 602473). It is filed as functional. The conditions noted are these: read-out: EC50_Mean.

Data set [3] is described as follows: blockers of CRF-binding protein–CRF-R2 complex – cell-based, uHTS hits, 384-well, dose response (AID 651639). Type of data set: functional, Homo sapiens. The conditions noted are these: read-out: IC50_Mean.
Data set [4] has as its target T1, Corticotropin-releasing factor receptor 2/Corticotropin-releasing factor-binding protein. In words: Dose Response confirmation of uHTS hits for small molecule antagonists of the CRF-binding protein and CRF-R2 receptor complex. It is filed as functional. The conditions noted are these: read-out: IC50_Mean.
Data set [5] addresses Prothrombin (Homo sapiens, UniProt P00734). In words: Thrombin 1536 HTS Dose Response Confirmation. [Related pubchem assays: 1046 (Thrombin 1536 HTS; hits were confirmed in this assay)]. Type of data set: functional.
The target in data set [6] is Genome polyprotein (dengue virus type 2, UniProt P29990). In words: flavivirus cap methylation enzyme inhibition – biochemical, confirmation dose response, primary screen (AID 588689). It is filed as functional.
Data set [7] has as its target Large T antigen (Simian virus 40, UniProt P03070). Type of data set: functional, Betapolyomavirus macacae.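 Further: Confirmatory-stage PubChem screen for compounds that inhibit SV40 T antigen.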
A short description of data set [8]: cells. It is filed as functional.
Data set [9] deals with T2, Carboxy-terminal domain RNA polymerase II polypeptide A small phosphatase 1 (Homo sapiens, UniProt Q9GZU7).
T2 sequence (Q9GZU7 whole entry): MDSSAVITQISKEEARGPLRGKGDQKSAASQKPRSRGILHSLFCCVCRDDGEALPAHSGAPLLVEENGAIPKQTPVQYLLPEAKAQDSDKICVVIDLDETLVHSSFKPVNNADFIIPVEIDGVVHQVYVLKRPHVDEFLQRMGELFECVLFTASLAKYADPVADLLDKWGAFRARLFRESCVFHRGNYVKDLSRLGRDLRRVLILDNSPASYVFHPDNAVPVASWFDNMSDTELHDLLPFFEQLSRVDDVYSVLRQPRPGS
In words: CTDSP1 inhibitors, concentration-response, biochemical, absorbance readout, ultra-high-throughput screen actives (AID 540297). It is filed as functional.

A short description of data set [10]: viability of HCT116 lacking mutant beta-catenin – cell-based, human colon tumor, dose response (AID 1045).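 Further: HCT116 colon tumor cells with beta catenin knocked out; cells exposed to compound for 60 hours.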 It is filed as functional.
Data set [11] can be described thus: viability of PTEN-deleted HCT116 cells – cell-based, HCT116 PTEN knockout, dose response (AID 1047).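 Further: HCT116 colon tumor cells with PTEN knocked out; cells exposed to compound for 60 hours before readout; potency for loss of cell viability measured by luminescence.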 It is filed as functional.
Data set [12] has as its target T3, High affinity choline transporter 1 (Homo sapiens, UniProt Q9GZV3).
T3 sequence (Q9GZV3 whole entry): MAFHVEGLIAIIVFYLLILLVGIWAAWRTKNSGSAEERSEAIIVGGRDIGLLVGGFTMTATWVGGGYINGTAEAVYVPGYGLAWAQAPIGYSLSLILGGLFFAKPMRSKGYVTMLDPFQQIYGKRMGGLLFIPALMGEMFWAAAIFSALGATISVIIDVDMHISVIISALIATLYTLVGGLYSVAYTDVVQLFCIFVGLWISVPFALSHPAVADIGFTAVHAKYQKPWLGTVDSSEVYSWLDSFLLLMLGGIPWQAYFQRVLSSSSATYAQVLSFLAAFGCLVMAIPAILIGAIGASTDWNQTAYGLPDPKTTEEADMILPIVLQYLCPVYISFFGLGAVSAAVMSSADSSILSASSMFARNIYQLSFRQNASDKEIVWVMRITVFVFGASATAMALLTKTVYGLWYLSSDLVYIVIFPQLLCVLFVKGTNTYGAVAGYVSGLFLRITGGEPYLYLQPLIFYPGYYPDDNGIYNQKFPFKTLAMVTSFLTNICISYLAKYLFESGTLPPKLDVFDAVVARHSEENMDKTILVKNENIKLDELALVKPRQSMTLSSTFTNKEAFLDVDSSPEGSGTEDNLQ
In words: human choline transporter blockers, potency – cell-based, 5-point CRC, membrane potential dye, dose response (AID 504840). Type of data set: functional.

The nature of data set [13]: intracellular Trypanosoma cruzi inhibitors in host cells – cell-based, plate reader, cherry-pick samples, set 3, dose response (AID 651818).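 Further: compounds incubated with infected cells for about four days.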 It is filed as functional.
Data set [14] concerns Streptococcus sp. 'group A'. In words: Streptococcus pyogenes SK(-)GAS viability under kanamycin – luminescence, BacTiterGlo, confirmation, counter-screen for streptokinase expression inhibitor project, dose response (AID 1900). Type of data set: functional, organism-based.
Data set [15] has as its system Streptococcus. In words: GAS UMAA2166 growth inhibition – luminescence, BacTiterGlo, counter-screen for streptokinase expression inhibitor project, dose response (AID 1915).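 Further: potency for reduction of bacterial viability or growth.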 It is filed as functional, organism-based.
Data set [16] has as its target Cytochrome P450 2C9 (Homo sapiens, UniProt P11712).

Chain of Genome polyprotein (P29990 2492-3391 limits assumed): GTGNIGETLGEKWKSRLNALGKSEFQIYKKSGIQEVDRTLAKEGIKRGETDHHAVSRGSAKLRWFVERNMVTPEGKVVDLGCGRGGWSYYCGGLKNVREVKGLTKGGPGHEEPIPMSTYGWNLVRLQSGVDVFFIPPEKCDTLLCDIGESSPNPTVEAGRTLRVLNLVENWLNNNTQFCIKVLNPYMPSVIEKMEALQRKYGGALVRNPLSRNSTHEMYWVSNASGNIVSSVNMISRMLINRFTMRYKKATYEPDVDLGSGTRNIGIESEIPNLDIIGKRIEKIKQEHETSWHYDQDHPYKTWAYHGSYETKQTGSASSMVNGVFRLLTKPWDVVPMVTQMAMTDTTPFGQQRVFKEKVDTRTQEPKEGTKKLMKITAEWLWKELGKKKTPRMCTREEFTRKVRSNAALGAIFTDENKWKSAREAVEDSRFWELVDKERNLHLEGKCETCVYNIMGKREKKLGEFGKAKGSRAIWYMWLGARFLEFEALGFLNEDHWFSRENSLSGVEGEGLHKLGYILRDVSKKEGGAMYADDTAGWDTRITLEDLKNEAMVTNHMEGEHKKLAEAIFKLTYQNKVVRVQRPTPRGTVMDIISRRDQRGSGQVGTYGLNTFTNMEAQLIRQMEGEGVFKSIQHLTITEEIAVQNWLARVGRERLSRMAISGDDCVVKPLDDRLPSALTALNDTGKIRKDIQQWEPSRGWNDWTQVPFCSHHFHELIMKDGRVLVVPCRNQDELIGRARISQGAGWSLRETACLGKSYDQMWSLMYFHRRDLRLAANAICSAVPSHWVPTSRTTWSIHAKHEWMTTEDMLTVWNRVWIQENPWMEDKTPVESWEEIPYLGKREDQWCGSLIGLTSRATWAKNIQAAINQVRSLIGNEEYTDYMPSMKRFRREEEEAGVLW
Chain of Cytochrome P450 2C9 (P11712 whole entry): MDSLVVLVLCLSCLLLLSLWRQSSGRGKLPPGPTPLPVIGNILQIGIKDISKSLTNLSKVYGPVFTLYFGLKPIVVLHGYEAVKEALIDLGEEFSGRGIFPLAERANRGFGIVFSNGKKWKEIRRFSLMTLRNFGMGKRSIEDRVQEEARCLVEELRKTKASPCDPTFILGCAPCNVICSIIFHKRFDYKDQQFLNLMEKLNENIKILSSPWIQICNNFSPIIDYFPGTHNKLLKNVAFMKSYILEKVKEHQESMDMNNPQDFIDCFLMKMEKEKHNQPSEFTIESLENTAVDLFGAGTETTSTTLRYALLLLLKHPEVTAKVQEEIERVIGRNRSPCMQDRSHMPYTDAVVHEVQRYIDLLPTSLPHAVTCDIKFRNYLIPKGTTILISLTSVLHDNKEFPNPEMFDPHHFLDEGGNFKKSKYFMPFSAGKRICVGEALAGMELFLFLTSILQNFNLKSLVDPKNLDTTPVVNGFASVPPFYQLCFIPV
Chain of Large T antigen (P03070 whole entry): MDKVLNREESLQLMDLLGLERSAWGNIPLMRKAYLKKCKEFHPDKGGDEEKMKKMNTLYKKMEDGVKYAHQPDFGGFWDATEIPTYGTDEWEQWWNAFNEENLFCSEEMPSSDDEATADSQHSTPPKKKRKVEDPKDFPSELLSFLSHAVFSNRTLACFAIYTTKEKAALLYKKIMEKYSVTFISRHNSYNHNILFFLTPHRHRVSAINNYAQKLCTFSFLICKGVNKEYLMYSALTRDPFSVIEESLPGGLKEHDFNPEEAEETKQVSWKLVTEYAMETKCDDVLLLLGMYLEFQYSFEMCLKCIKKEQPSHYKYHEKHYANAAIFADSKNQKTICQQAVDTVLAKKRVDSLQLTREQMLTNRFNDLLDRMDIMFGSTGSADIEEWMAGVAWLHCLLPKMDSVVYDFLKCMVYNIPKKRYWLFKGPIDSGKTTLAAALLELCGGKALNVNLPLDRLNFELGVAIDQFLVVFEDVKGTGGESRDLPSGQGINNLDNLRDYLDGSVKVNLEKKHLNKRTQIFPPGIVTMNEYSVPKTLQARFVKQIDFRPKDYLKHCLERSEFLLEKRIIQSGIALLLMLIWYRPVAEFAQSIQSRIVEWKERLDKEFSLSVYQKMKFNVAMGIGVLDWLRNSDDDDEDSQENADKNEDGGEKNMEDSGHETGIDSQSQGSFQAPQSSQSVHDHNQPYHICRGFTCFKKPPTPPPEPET

In the case of `Cc1ccccc1-c1nc(CN2CCC(C(=O)O)CC2)c(C)o1`, the AC50 in [1] was 20.8 µM (active).

Regarding `Cc1cc([N+](=O)[O-])ccc1NC1CCCC1`, in data set [2], the EC50 is > 53 µM (inactive). Also, the IC50 in data set [3] was 12.8 µM (active); in data set [4] it was 7.24 µM (active).

`CCc1cccc(CC)c1NC(=O)c1cccc(N)c1`: the IC50 in data set [5] is > 50 µM (not active).

On to `CCOC(=O)Cc1csc(NC(=S)NC(=O)c2ccc([N+](=O)[O-])cc2)n1`, for which the EC50 in [2] is 18 µM (active). For the same molecule, the figures for the IC50 in data set [3] and in data set [4] were > 20 µM (inactive) and 16.7 µM (active), respectively.

With `CC(C)c1ccc(NC(=O)COc2ccccn2)cc1`, in data set [5], the IC50 is on record as > 50 µM (not active).

Turning to `COc1cc(/C=C2/C(=O)NN(c3cccc(C)c3)C2=O)ccc1OC(=O)c1ccco1`, the figures for the IC50 in data set [6], in data set [7] and in data set [8] were 64 µM (active), 32.1 µM (active) and 19.9 µM (active), respectively.

Turning to `O=C(CSc1nnc(-c2ccncc2)n1-c1ccc(F)cc1)NC(=O)NCc1ccco1`, the IC50 in [9] was 8.38 µM (active).

Take `CCCC(NC(=O)Cc1c(C)c2cc3c(C)c(C)oc3c(C)c2oc1=O)C(=O)N[C@@H](Cc1ccccc1)C(=O)O` (stereo partly specified): the IC50 in data set [9] was 3.57 µM (active).

Consider `Cc1cc(Oc2nc3c(C)cccn3c(=O)c2/C=C(\C#N)S(=O)(=O)c2ccc(Cl)cc2)ccc1Cl`, for which the EC50 was 6.7 µM (active) in [10] and 7.18 µM (active) in [11]. Moreover, the AC50 in data set [1] was 28.9 µM (active).

Turning to `Cc1ncoc1C(=O)Nc1ccc(Oc2ccccc2)cc1`, the IC50 in data set [12] was 13.2 µM (active).

For `O=C(Nc1cccc([N+](=O)[O-])c1)Nc1cccc([N+](=O)[O-])c1`, in [9], the IC50 was 8.46 µM (active).

Turning to `CCCN(CCC)c1nc(O)nc(N(CCC)CCC)n1`, the IC50 in data set [12] was 3.63 µM (active).

As for `O=C(O)c1ccc(Cl)c(S(=O)(=O)Nc2ccccc2C(=O)Nc2ccc(Cl)cc2)c1`, in [6], the IC50 is 34 µM (active).

As for `CCCC(C(=O)O)N1C(=O)/C(=C2\C(=O)N(C)c3ccccc32)SC1=S` (stereo unspecified), the IC50 in data set [6] was 30.4 µM (active).

For `COc1cc2c(cc1NC(=O)COC(=O)[C@@H](NC(=O)c1ccccc1)C(C)C)oc1ccccc12`, the AC50 in data set [1] is 33.8 µM (active).

`Nc1nnc(SCc2cc3c(cc2Cl)OCO3)s1`: the EC50 in data set [2] was > 53 µM (inactive). The IC50 in [3] is > 20 µM (inactive); in data set [4], 22.5 µM (active).

For `Cc1cccc(NC(=S)NC23CN4CN(CN(C4)C2)C3)c1`, the IC50 in [5] is > 50 µM (not active).

On to `COC(=O)c1ccc(N2NC(=O)/C(=C/c3cc(OC)c(OC)c(OC)c3)C2=O)cc1`, for which, in data set [6], the IC50 was 46.6 µM (active).

Consider `COc1ccccc1CCNC(=O)CCn1nc(C)c2c(C)n(-c3ccccc3)nc2c1=O`, for which, in data set [2], the EC50 was > 53 µM (inactive). Further, the results for the IC50 in data set [3] and in [4] were > 20 µM (inactive) and 41.1 µM (active), respectively.

Turning to `C[C@@H]1CN([C@@H](C)CO)C(=O)Cc2cc(NC(=O)Nc3cccc4ccccc34)ccc2O[C@@H]1CN(C)Cc1ccc(C(F)(F)F)cc1`, the AC50 in [13] was 3.08 µM (active).

For `O=C(CCS(=O)(=O)c1ccc(Br)cc1)NC1CCCCCC1`, the IC50 in data set [9] is 7.42 µM (active).

As to `CSc1nc(C)c(C(=O)C[n+]2ccccc2C)cc1C#N`, the EC50 in [2] is > 53 µM (inactive). Further, the IC50 in data set [3] was > 20 µM (inactive); in data set [4], < 0.368 µM (active).

Consider `Cc1ccc(OCCSC2=NN2c2cc(C)nc(N)n2)cc1`, for which the IC50 in [12] is 14.8 µM (active).

In the case of `C[C@@H]1CCCCO[C@@H](CN(C)Cc2ccc(Cl)c(Cl)c2)[C@@H](C)CN([C@H](C)CO)C(=O)c2cc(NS(=O)(=O)c3ccc(F)cc3)ccc2O1`, the AC50 in data set [13] is 4.38 µM (active).

In the case of `C[C@@H]1CN([C@@H](C)CO)C(=O)Cc2cc(NC(=O)Nc3ccc(C(F)(F)F)cc3)ccc2O[C@@H]1CN(C)Cc1ccc(C(F)(F)F)cc1`, the AC50 in data set [13] was 3.26 µM (active).

With `COc1ccc(NC(=O)Nc2ccc3c(c2)CC(=O)N([C@@H](C)CO)C[C@@H](C)[C@@H](CN(C)Cc2ccc(C(=O)Nc4ccccc4N)cc2)O3)cc1`, in [13], the AC50 was 2.51 µM (active).

Regarding `C[C@@H]1CN([C@H](C)CO)C(=O)c2cccc(NC(=O)Nc3ccc4c(c3)OCO4)c2O[C@H]1CN(C)Cc1ccc(C(=O)Nc2ccccc2N)cc1`, in data set [13], the AC50 was 0.743 µM (active).

Regarding `CC[C@H]1OC(=O)[C@H](C)[C@@H](O[C@H]2C[C@@](C)(OC)[C@@H](O)[C@H](C)O2)[C@H](C)[C@@H](O[C@@H]2O[C@H](C)C[C@H](N(C)C)[C@H]2O)[C@](C)(OC)C[C@@H](C)C(=O)[C@H](C)[C@@H](O)[C@]1(C)O` [CLARITHROMYCIN], the EC50 in [14] and in data set [15] was < 0.06 µM (active) in each case. The concentration at half-maximal activity (AC50) in [1] is 23.1 µM (active).

As to `CCn1cc(C(=O)O)c(=O)c2cc(F)c(N3CCNCC3)nc21` [ENOXACIN], the AC50 entry is “inconclusive” in data set [16] and 1.07 µM (active) in data set [1].
